Reference: ChEMBL document CHEMBL1201862, “PubChem BioAssay data set” (2004)
Calls of active or inactive are those of the source.

Legend:
[1] = target: Mitogen-activated protein kinase 8 (Homo sapiens, UniProt P45983); type: functional;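 further: value comes from one member of a kinome-wide kinase profiling panel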
[2] = target: Serine/threonine-protein kinase pim-1 (Homo sapiens, UniProt P11309); type: functional
[3] = target: Serine/threonine-protein kinase Chk1 (Homo sapiens, UniProt O14757); type: functional;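 further: measured as one member of a kinome-wide kinase profiling panel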
Serine/threonine-protein kinase Chk1, sequence (O14757 whole entry): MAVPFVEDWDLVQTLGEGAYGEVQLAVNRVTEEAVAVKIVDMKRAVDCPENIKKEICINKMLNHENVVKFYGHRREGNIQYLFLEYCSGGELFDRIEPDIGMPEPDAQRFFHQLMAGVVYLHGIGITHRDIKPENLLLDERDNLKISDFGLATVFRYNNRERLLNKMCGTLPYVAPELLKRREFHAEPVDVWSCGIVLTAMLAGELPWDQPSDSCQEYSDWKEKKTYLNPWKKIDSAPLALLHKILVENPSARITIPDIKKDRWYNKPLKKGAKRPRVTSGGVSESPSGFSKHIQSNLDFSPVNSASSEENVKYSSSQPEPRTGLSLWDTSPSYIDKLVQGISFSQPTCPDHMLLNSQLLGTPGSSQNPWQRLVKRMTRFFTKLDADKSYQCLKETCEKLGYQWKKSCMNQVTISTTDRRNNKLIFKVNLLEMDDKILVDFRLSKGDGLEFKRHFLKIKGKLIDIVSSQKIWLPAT

[4] = target: Dual specificity protein kinase CLK4 (Homo sapiens, UniProt Q9HAZ1); type: functional
[5] = target: ALK tyrosine kinase receptor (Homo sapiens, UniProt Q9UM73); type: functional;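 further: ALK tested as one member of a kinase panel screen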
ALK tyrosine kinase receptor, sequence (Q9UM73 whole entry): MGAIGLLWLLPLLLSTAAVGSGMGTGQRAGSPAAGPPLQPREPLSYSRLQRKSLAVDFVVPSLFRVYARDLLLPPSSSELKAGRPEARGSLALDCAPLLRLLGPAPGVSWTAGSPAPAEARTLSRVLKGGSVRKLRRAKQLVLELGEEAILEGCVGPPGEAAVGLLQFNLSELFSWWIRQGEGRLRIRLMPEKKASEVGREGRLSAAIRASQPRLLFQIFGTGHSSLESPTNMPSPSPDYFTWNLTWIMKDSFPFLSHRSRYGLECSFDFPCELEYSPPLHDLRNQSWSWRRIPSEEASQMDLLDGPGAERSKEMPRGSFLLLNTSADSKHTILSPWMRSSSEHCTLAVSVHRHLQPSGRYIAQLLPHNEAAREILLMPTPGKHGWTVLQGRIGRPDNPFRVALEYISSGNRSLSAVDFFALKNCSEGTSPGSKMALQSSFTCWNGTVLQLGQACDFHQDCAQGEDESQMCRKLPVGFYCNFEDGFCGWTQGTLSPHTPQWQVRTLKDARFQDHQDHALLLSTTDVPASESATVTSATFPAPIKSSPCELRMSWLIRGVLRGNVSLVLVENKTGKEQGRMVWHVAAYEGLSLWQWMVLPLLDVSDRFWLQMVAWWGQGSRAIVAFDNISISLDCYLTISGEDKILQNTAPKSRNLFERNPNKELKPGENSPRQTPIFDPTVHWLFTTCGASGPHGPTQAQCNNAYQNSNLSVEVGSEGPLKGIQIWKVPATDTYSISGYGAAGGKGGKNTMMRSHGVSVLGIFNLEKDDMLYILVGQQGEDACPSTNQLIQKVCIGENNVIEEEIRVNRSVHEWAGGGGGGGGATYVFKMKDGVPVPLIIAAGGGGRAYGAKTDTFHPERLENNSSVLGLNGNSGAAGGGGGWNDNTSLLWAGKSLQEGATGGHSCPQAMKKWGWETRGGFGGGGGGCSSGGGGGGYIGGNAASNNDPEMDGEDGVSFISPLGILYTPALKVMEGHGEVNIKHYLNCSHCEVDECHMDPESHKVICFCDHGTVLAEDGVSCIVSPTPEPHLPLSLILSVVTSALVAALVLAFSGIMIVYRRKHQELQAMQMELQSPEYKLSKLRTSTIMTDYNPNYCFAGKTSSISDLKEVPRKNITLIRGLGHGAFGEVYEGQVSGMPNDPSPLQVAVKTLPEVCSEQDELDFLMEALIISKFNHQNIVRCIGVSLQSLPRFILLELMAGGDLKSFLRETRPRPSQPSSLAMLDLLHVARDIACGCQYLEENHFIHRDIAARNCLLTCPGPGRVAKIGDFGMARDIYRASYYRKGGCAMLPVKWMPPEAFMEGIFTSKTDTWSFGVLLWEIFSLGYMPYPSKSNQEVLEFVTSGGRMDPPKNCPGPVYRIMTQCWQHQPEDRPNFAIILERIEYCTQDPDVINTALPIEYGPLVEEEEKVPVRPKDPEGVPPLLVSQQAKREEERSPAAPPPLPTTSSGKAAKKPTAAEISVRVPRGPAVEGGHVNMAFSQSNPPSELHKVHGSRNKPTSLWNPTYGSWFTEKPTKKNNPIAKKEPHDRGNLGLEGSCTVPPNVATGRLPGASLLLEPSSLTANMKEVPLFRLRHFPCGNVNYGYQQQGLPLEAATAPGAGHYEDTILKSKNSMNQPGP

[6] = target: Cell division cycle 7-related protein kinase (Homo sapiens, UniProt O00311); type: functional;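 further: value obtained from a kinome-wide kinase panel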
[7] = target: Sphingosine 1-phosphate receptor 1 (Homo sapiens, UniProt P21453); assay: Late-stage fluorescence-based dose-response cell-based counterscreen assay to identify agonists of the Sphingosine 1-Phosphate Receptor 4 (S1P4): Sphingosine 1-Phosphate Receptor 1 (S1P1) agonist assay Set 2.; type: functional
[8] = target: Sphingosine 1-phosphate receptor 5 (Homo sapiens, UniProt Q9H228); assay: S1P5 receptor agonists, human, late-stage follow-up, counter-screen for S1P4 agonist project, cell-based, fluorescence, set 2 (AID 504867); type: functional
Sphingosine 1-phosphate receptor 5, sequence (Q9H228 whole entry): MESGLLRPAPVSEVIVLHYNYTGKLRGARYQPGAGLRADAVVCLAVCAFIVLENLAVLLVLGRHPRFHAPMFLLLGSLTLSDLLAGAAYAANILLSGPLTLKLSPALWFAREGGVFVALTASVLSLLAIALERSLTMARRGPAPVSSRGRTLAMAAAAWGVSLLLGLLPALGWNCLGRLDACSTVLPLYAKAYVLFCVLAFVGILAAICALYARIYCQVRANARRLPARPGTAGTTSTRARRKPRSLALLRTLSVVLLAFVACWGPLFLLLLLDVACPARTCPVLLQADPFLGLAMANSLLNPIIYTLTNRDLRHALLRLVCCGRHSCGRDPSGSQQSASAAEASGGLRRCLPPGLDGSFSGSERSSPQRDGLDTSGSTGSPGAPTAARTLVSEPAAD

[9] = target: Sphingosine 1-phosphate receptor 3 (Homo sapiens, UniProt Q99500); assay: Late-stage fluorescence-based dose-response cell-based counterscreen assay to identify agonists of the Sphingosine 1-Phosphate Receptor 4 (S1P4): Sphingosine 1-Phosphate Receptor 3 (S1P3) agonist assay Set 2.; type: functional
[10] = target: Sphingosine 1-phosphate receptor 2 (Homo sapiens, UniProt O95136); assay: S1P2 receptor agonists, human, late-stage follow-up, counter-screen for S1P4 agonist project, cell-based, fluorescence, set 2 (AID 504873); type: functional
Sphingosine 1-phosphate receptor 2, sequence (O95136 whole entry): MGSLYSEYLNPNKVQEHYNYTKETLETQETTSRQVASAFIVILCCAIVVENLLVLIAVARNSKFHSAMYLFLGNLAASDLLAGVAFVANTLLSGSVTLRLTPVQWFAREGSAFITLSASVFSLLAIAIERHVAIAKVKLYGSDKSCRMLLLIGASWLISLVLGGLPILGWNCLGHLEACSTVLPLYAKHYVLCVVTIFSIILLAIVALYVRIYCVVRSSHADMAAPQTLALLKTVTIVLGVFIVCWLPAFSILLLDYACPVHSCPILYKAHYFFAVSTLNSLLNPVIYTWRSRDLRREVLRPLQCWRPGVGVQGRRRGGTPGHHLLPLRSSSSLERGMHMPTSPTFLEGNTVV

[11] = target: G-protein coupled receptor 35 (Homo sapiens, UniProt Q9HC97); assay: GPR35 antagonists blocking zaprinast-driven arrestin recruitment, primary screen, imaging, U2OS, beta-arrestin-GFP, zaprinast agonist (AID 2058); type: functional;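 further: antagonist potency meaning inhibition of agonist-induced arrestin redistribution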
[12] = target: T1, Delta-type opioid receptor (Homo sapiens, UniProt P41143); assay: HTS Image-Based Screen for Antagonists of the DOR Receptor. [Related pubchem assays (depositor defined):AID1777, AID1785, AID1786, AID2133]; type: functional
T1 sequence (P41143 whole entry): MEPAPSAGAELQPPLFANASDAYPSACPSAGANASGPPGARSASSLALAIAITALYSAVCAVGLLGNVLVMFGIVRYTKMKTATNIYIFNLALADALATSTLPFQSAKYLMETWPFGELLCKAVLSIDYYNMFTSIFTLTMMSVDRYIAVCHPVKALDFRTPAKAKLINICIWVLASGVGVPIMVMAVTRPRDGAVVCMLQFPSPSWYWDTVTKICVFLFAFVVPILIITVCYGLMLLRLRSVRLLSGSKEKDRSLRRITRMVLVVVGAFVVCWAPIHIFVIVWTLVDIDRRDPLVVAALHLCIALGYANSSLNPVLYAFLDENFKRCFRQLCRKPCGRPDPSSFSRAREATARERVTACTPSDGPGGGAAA

Mu-type opioid receptor = Mu-type opioid receptor (Homo sapiens, UniProt P35372); assay: HTS Image-Based Screen for Agonists of the MOR Receptor. [Related pubchem assays (depositor defined):AID1777, AID1785, AID1786, AID2133]; type: functional;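 further: imaging of beta-arrestin GFP recruitment into spots after receptor activation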
Mu-type opioid receptor, sequence (P35372 whole entry): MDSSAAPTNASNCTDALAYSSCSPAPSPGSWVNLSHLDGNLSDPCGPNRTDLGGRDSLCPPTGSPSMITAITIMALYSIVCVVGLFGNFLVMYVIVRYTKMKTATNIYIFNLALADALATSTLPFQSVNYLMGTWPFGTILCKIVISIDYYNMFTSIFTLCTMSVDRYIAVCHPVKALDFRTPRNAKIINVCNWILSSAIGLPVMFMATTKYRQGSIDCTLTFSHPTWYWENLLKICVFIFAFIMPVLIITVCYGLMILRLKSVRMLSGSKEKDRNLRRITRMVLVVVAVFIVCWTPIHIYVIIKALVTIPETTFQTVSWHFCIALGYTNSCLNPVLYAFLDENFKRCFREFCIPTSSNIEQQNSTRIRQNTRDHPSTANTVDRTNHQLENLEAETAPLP

[13] = target: T1, Delta-type opioid receptor; assay: HTS Image-Based Screen for Agonists of the DOR Receptor. [Related pubchem assays (depositor defined):AID1777, AID1786, AID2133]; type: functional
[14] = target: T2, Mannose-6-phosphate isomerase (Homo sapiens, UniProt P34949); assay: inhibitors of human PMI, primary screen, biochemical, fluorescence intensity, coupled assay (AID 1209)
T2 sequence (P34949 whole entry): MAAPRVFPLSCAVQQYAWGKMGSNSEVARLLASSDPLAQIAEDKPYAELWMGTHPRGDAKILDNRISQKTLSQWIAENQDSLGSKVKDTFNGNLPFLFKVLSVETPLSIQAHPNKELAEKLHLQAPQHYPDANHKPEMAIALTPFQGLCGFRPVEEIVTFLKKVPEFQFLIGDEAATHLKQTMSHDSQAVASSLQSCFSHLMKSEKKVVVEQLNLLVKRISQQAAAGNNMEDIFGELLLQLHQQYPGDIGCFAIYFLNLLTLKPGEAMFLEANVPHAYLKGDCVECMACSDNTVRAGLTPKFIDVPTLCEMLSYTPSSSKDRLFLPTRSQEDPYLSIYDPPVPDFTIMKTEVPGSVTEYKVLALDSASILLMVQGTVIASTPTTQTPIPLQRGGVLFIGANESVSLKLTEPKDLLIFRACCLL

[15] = target: T3, Kappa-type opioid receptor (Homo sapiens, UniProt P41145); type: functional
T3 sequence (P41145 whole entry): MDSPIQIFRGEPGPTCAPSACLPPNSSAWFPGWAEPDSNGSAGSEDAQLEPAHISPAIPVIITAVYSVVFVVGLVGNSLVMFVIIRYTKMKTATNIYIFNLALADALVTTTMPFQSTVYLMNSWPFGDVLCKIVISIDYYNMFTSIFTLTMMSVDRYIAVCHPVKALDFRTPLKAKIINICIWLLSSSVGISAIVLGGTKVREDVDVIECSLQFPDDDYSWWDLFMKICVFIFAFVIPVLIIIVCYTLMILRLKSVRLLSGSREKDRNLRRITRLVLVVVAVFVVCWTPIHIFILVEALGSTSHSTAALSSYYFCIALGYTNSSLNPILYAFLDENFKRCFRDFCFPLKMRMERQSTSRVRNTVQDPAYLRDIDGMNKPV

[16] = target: T3, Kappa-type opioid receptor; type: functional; remark: listed apart in the source
[17] = target: T4, Bifunctional protein GlmU (Mycobacterium tuberculosis, UniProt P9WMN3); assay: Inhibitors of Mycobacterial Glucosamine-1-phosphate acetyl transferase (GlmU). Secondary screen.; design: species or system Mycobacterium tuberculosis H37Rv
T4 sequence (P9WMN3 whole entry): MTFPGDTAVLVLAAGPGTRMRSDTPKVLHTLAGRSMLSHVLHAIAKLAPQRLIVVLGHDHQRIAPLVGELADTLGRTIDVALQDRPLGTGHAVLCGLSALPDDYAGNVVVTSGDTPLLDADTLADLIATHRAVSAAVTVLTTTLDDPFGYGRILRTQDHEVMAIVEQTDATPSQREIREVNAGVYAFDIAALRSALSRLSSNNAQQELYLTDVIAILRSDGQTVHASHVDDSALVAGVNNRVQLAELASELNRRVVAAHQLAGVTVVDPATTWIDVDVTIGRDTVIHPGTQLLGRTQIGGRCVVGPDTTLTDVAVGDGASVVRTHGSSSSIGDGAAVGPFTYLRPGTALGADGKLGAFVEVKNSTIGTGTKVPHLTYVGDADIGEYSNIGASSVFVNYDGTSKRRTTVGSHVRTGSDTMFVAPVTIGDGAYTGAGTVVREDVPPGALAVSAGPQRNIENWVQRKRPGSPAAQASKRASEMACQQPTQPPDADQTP

[18] = target: Heat shock protein HSP 90-alpha (Homo sapiens, UniProt P07900); type: functional, organism-based
[19] = target: T5, V-type proton ATPase subunit c' (Saccharomyces cerevisiae S288c, UniProt P32842); assay: Dose Response of Small Molecules that Regulate V-ATPase Proton Transport in Yeast using pHLuorin, Cherry Pick 1. [Related pubchem assays (depositor defined):AID504622]; type: functional
T5 sequence (P32842 whole entry): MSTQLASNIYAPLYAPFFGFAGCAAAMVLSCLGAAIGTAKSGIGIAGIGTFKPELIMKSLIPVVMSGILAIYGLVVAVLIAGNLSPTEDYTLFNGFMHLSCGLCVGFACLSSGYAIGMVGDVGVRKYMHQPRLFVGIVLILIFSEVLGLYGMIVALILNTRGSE

Melanocortin receptor 4 = Melanocortin receptor 4 (Homo sapiens, UniProt P32245); assay: MC4R antagonist potency on cAMP, dose response, cell-based, TR-FRET, biased antagonists (AID 602298); type: functional;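 further: antagonist potency against agonist-stimulated cAMP production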
Melanocortin receptor 4, sequence (P32245 whole entry): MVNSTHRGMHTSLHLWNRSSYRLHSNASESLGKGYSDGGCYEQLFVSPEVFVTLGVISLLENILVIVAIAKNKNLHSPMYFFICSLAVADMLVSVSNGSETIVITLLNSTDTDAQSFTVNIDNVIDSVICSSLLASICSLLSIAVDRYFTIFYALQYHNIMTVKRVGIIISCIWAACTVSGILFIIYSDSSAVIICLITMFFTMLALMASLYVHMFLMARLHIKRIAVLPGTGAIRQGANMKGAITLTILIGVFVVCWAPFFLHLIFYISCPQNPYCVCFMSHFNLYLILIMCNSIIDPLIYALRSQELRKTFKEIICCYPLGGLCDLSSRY

[20] = Shn3 3'UTR reporter inhibitors, dose response, cell-based, Clone20 osteoblasts, firefly luciferase, cherry-picked (AID 624132); type: functional;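 further: firefly luciferase luminescence from reporter carrying the Shn3 3'UTR in osteoblasts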
[21] = target: T5, V-type proton ATPase subunit c'; assay: Dose Response of Small Molecules that Regulate V-ATPase Proton Transport in Yeast using pHLuorin, Cherry Pick 2.; type: functional; settings: read-out: EC50_MICROM
[22] = HepG2 cell cytotoxicity, dose response, cytotoxicity control for Shn3 inhibitor project, CellTiter-Glo, cherry-picked (AID 624134); type: functional, cell-based
[23] = control 3'UTR Renilla luciferase suppression, dose response, counter-screen for Shn3 inhibitor project, cell-based, Clone20-Shn3RL, cherry-picked (AID 624133); type: functional
[24] = nonselective inhibitors of cellular cAMP signaling, dose response, counter-screen for MC4R biased antagonist project, cell-based, TR-FRET cAMP detection (AID 602305); type: functional;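 further: U2OS cells stimulated with forskolin near its EC80 as the cAMP inducer; potency is for inhibition of forskolin-stimulated cAMP signaling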
[25] = HeLa cell cytotoxicity, dose response, cytotoxicity control for MgcRacGAP inhibitor project (AID 624300); type: functional
[26] = target: T6, Rac GTPase-activating protein 1 (Homo sapiens, UniProt Q9H0H5); assay: MgcRacGAP GTPase-activating activity inhibitors, confirmation, biochemical, ADP Hunter fluorescence, primary and confirmatory (AID 624330); type: functional
T6 sequence (Q9H0H5 whole entry): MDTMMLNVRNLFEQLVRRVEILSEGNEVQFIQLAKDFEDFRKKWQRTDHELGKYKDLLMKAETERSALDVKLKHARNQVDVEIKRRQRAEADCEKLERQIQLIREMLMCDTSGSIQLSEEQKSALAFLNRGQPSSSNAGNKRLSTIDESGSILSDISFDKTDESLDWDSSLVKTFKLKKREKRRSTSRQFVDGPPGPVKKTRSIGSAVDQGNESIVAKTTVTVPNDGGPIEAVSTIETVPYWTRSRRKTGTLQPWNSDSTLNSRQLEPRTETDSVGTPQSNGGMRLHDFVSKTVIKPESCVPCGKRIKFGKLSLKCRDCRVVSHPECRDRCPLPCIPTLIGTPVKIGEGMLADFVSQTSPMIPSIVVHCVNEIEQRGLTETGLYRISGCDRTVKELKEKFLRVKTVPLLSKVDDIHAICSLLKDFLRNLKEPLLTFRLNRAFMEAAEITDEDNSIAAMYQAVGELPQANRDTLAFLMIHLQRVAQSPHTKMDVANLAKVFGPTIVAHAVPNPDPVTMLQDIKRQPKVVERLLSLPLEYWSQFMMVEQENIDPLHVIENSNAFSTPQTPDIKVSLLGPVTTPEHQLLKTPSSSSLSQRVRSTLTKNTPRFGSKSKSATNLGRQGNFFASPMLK

Escherichia coli [27] = assay: microbe, parasite or virus in culture
Escherichia coli [28] = assay: microbe, parasite or virus in culture; remark: listed apart in the source
[29] = target: Protein disulfide-isomerase (Homo sapiens, UniProt P07237); assay: PDI inhibitors, insulin aggregation turbidity, dose response, biochemical, absorbance, cherry-picked samples (AID 602350); type: functional
[30] = P. falciparum Dd2 growth inhibitors, dose response, SYBR Green, cherry-picked samples (AID 1159567); type: functional, cell-based

Mitogen-activated protein kinase 8, sequence (P45983 whole entry): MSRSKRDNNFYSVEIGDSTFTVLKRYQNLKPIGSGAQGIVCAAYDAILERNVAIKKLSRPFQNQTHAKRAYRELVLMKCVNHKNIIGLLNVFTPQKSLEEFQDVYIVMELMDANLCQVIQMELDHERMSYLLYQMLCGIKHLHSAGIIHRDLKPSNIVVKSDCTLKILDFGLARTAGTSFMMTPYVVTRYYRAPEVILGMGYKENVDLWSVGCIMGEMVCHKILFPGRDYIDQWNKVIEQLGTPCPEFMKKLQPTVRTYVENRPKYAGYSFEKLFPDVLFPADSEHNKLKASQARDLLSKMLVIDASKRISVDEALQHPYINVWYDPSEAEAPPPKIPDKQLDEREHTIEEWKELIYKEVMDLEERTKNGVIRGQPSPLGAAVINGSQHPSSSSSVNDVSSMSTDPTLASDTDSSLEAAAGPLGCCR

In the case of `COc1ccc(C(=O)Nc2ccccc2C(=O)O)cc1OC`, the Ki [1] is reported as 2.51 µM (active), the Ki [2] is reported as 5.01 µM (active) and the Ki [3] is reported as 1.58 µM (active). For the same molecule, the Ki [4] was 1.58 µM (active).

For `O=c1cc(-c2ccccc2)nc(NC2CCCCC2)[nH]1`, the Ki [5] was > 5.01 µM (inactive) and the Ki [6] was 0.251 µM (active).

In the case of `CC/N=C1/S/C(=C/c2cc(C)n(-c3ccccn3)c2C)C(=O)N1CC`, the EC50 [7] is reported as 0.103 µM (active), the EC50 [8] is reported as 0.72 µM (active) and the EC50 [9] is reported as > 25 µM (inactive). For the same molecule, the EC50 [10] was > 25 µM (inactive).

With `Cc1c(Cl)sn(-c2ccc(Cl)cc2)c1=O` the IC50 [11] was 2.72 µM (active), the IC50 [12] was > 32 µM (inactive) and the EC50 (Mu-type opioid receptor) was > 32 µM (inactive). The EC50 [13] was > 32 µM (inactive), the IC50 [14] was > 50 µM (not active) and the EC50 [15] was greater than 35 µM. The EC50 [16] was 6.37 µM, the IC50 [17] was 118 µM (active) and the AC50 [18] was < 0.195 µM (active). For the same molecule, the EC50 [19] was 5.19 µM (active), the IC50 (Melanocortin receptor 4) was 3.75 µM (active) and the AC50 [20] was 0.728 µM (active). For the same molecule, the EC50 [21] was 1.4 µM (active), the AC50 [22] was 19.8 µM (active) and the AC50 [23] was 3.85 µM (active). The IC50 [24] was 19.6 µM (inactive), the CC50 [25] was 9.78 µM (active) and the IC50 [26] was 49.6 µM (active). The AC50 (Escherichia coli [27]) was 6.51 µM (active) and the AC50 (Escherichia coli [28]) was 2.64 µM (active).

For `C[C@H](CO)N1C[C@H](C)[C@@H](CN(C)S(=O)(=O)c2ccccc2)Oc2ccc(NC(=O)Cc3cn(C)c4ccccc34)cc2C1=O`, the AC50 [29] was 0.125 µM (active) and the AC50 [30] was 4.29 µM (active).
